Tests used:
[1] = Plasma protein binding assay (equilibrium dialysis), mouse plasma; format: in vitro ADME; conditions: pH 7.4, Mice plasma, equilibrium dialysis 5 hours, read-out: Plasma protein binding rate (%) (converted)
Description: (§1) • 1. Test purpose: to evaluate the protein binding rate of the test compound in human, dog, monkey, rat and mouse plasma by equilibrium dialysis; • 2. […] Experimental methods: • 0.1 mol/L sodium phosphate and 0.15 mol/L sodium chloride buffer with pH 7.4±0.1 was preheated;
(§2) Preparation of plasma containing test substance: the test compound was dissolved in DMSO to prepare a 10 mmol/l stock solution. 5 μL of stock solution was taken and diluted with 95 μL of acetonitrile to obtain solution A (0.5 mmol/L). 8 μL of solution A was taken and diluted with 192 μL of 0.1 mol/L sodium phosphate buffer to obtain solution B (0.02 mmol/L). 570 μL of plasma was added into a 96-well plate followed by the addition of 30 μL of solution B. The final concentration was 1 μmol/L with 0.01% DMSO.
(§3) The plate was shook at 600 rpm for 10 minutes, covered and stored in a freezer (−20° C.).
(§4) T5 sample preparation (in triplicate): the dialysis device was added with 100 μL of buffer on its receiver side and 100 μL of plasma containing the test compound on its doner side. And the dialysis device was then shook at 37° C. and 120 rpm for 5 hours. At the end of culture, 25 μL of plasma containing the test substance was taken from the plasma side and then added to a 96-well plate, followed by the addition of 25 μL of buffer and 200 μL of acetonitrile solution containing internal standard. […]

[2] = Plasma protein binding assay (equilibrium dialysis), rat plasma; format: in vitro ADME; conditions: pH 7.4, equilibrium dialysis 5 hours, read-out: Plasma protein binding rate (%) (converted)
Description: as §1, §2, §3, §4

hERG potassium channel = hERG potassium channel (Homo sapiens, UniProt Q12809); test: hERG experiment, manual membrane clamp on HEK293 cells
hERG potassium channel, sequence (Q12809 whole entry): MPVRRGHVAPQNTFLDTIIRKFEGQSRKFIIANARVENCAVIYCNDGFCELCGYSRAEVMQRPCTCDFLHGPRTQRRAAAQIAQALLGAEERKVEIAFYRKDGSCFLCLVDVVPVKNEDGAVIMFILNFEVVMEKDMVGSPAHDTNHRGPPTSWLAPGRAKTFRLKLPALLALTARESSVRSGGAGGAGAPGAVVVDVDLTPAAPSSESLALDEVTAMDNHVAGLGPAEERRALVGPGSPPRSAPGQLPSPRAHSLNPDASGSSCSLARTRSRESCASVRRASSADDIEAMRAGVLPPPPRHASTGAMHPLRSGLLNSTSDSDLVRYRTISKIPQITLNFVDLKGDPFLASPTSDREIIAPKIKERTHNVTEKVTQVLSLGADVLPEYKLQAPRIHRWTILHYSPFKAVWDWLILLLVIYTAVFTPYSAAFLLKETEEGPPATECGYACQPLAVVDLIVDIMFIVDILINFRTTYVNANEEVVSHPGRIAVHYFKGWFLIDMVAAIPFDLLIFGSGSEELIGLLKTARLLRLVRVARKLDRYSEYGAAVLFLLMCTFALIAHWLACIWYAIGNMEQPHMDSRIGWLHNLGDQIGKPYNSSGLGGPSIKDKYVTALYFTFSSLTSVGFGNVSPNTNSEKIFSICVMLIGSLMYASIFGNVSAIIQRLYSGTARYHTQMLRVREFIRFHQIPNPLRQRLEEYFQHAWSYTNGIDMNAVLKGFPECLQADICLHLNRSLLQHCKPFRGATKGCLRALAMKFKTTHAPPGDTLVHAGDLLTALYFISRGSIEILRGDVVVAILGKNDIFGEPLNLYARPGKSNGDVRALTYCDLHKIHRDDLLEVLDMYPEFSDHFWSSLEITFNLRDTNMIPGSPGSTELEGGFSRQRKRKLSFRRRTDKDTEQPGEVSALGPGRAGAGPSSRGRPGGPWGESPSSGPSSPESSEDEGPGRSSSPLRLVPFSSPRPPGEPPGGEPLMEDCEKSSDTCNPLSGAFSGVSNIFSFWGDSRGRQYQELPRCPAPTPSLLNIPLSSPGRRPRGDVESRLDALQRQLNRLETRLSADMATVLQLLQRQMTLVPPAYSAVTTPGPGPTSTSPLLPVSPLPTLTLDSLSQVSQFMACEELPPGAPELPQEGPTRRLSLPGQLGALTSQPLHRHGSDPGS
Description: hERG Experiment • 1. Test purpose: to test the inhibition of hERG current on HEK293 cells stably transfected with hERG potassium channel by manual membrane clamp; • 2. […] Manual membrane clamp system amplifier was purchased from Molecular Devices (Model No. MultiClamp700B); Manual membrane clamp system digital-to-analog converter was purchased from Molecular Devices (Model No. Axon Digidata1550B); Rapid perfusion system was purchased from ALA Scientific Ins. […] Experimental methods:
The cells were resuspended with culture medium and stored in a centrifuge tube, the supernatant was discarded after centrifugation, then the cells were resuspended with extracellular liquid for later use, and stored at 2-8° C.
The whole-cell membrane clamp technique was applied to record hERG currents. The cell suspension was added into small Petri dishes and placed on an inverted microscope stage. After cells were adhered, they were perfused with extracellular fluid at a recommended flow rate of 1-2 mL/min. The glass microelectrode was drawn in two steps by a micropipette puller, and its resistance value in water was 2-5 MΩ after filling with electrode internal fluid.
After the whole-cell recording mode was established, the clamp potential was maintained at −80 mV. […]
Stimulus release and signal acquisition were performed on PatchMaster software. […] Data was expressed as mean and standard deviation. […]

[3] = Whole blood stability assay, dog whole blood; format: in vitro ADME; conditions: 37° C.
Description: • 1. Test purpose: to determine the whole blood stability of the compounds by monitoring the clearance rate of the parent compound after incubation of some of the example compounds of the invention with dog and rat whole blood. • 2. […] Test method:
Then, the stock solution of the test compound was diluted to 1 mmol/L and 0.2 mmol/L with 70% acetonitrile aqueous solution, respectively, as working solution.
The working solution was added to the whole blood. The concentration of each test compound was 5 μmol/L. 90 μL was taken and then mixed evenly with 90 μL of water. Then 600 μL of acetonitrile termination solution containing propranolol as internal standard was added. Incubated at 37° C. in a water bath and shook gently. At 30, 60, 120 and 240 minutes, 90 μL of each mixture was placed on a clean 96-well plate prefilled with 90 μL of water, mixed well, and then 600 μL of acetonitrile termination solution containing propranolol as internal standard was added and centrifuged at 5000 g for 15 min. 80 μL of the supernatant was taken and placed in a 96-well plate preloaded with 160 μL of ultrapure water, then analyzed by LC-MS/MS.

[4] = Plasma protein binding assay (equilibrium dialysis), dog plasma; format: in vitro ADME; conditions: pH 7.4, equilibrium dialysis 5 hours, read-out: Plasma protein binding rate (%) (converted)
Description: as §1, §2, §3, §4

CYP 2D6 = CYP 2D6 (Homo sapiens, UniProt P10635); test: CYP inhibition test, human liver microsomes, CYP2D6
CYP 2D6, sequence (P10635 whole entry): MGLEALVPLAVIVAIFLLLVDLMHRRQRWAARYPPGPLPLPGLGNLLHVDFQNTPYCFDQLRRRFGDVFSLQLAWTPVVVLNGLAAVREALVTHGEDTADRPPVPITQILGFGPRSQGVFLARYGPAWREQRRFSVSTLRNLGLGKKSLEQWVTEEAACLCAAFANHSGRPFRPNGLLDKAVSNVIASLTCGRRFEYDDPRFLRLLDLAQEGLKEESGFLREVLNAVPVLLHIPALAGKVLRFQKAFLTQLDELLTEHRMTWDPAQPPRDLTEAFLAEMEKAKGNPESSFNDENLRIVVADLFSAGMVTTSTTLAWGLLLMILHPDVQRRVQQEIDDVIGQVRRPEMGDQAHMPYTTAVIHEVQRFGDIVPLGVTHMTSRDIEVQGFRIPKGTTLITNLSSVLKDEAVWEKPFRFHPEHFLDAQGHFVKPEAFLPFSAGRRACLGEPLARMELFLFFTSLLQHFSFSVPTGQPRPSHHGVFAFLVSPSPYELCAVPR
Description: (§5) • 1. Test purpose: to evaluate the inhibitory ability of some of the example compounds of the present invention against CYP1A2, 2B6, 2C8, 2C9, 2C19, 2D6 and 3A4 via human liver microsomes. • 2. […] Test method:
(§6) • 1. K/Mg buffer: the components were 0.1 mol/L potassium phosphate and 5 mmol/L magnesium chloride with pH 7.4±0.1, preheated. • 2. Solution of the test compound: the test compound was dissolved in dimethyl sulfoxide to prepare a stock solution of 10 mmol/L. 8 μL of 10 mmol/L stock solution was transferred to a 96-well plate containing 12 μL of acetonitrile as the highest concentration point, at 3-fold dilution, for 8 concentrations. • 3. […] Human liver microsomal stock solution: human liver microsomes were dissolved in 0.1 mol/L K/Mg buffer to obtain 20 mg/mL stock solution. • 5. Human liver microsomal working solution: 10 μL of 20 mg/mL human liver microsomal stock solution was taken and added into 990 μL of 0.1 mol/L K/Mg buffer to prepare 0.2 mg/mL human liver microsomal solution. • 6.
(§7) 600 μL of 0.2 mg/mL human liver microsomal solution and 3 μL of stepwise diluted test compound solution were added to the 96-well plate. 30 μL of the above solution was added on the 96-well plate followed by the addition of 15 μL of the corresponding substrate solution. […]

CYP 2B6 = biological target: T1, CYP 2B6 (Homo sapiens, UniProt P20813); test: CYP inhibition test, human liver microsomes, CYP2B6
T1 sequence (P20813 1-491): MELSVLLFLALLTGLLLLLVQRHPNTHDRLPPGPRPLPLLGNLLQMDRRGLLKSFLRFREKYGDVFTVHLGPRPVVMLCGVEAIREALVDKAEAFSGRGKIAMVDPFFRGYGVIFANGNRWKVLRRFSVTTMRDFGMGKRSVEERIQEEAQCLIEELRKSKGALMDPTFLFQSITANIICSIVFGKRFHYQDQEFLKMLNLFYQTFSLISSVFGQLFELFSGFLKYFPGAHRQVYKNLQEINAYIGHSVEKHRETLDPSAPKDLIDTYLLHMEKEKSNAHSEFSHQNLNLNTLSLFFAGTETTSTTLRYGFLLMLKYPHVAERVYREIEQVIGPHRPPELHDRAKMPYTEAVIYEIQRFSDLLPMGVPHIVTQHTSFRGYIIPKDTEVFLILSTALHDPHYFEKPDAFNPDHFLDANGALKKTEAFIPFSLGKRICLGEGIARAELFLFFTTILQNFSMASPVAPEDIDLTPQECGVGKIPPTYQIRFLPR
Description: as §5, §6, §7

C=CC(=O)N1CCN(c2nc(=O)n(-c3c(C)ccnc3C(C)C)c3nc(-c4c(O)cccc4F)c(F)cc23)[C@@H](C)C1 [AMG510]
fraction unbound at 5 h, 1 μmol/L [1]: 0.091 | fraction unbound at 5 h, 1 μmol/L [2]: 0.141 | IC50 (hERG potassium channel): > 30 µM | half-life at 5 μmol/L [3]: 1.46 h | fraction unbound at 5 h, 1 μmol/L [4]: 0.079 | IC50 (CYP 2D6): > 10 µM | IC50 (CYP 2B6): > 10 µM

C=C(F)C(=O)N1CCN(c2nc(OC[C@@H]3CCCN3C)nc3c2CCN(c2cccc4cccc(Cl)c24)C3)C[C@@H]1CC#N [MRTX849]
fraction unbound at 5 h, 1 μmol/L [1]: 0.004 | fraction unbound at 5 h, 1 μmol/L [2]: 0.01 | IC50 (hERG potassium channel): 0.99 µM | half-life at 5 μmol/L [3]: 6.15 h | fraction unbound at 5 h, 1 μmol/L [4]: 0.012 | IC50 (CYP 2D6): 9.72 µM | IC50 (CYP 2B6): 3.93 µM

From patent publication US20250034161A1, “SPIROCYCLIC COMPOUND AS KRAS-G12C INHIBITOR” (Shanghai Euregen Biopharma Co., Ltd., priority 2020, published 2025)
